In US11040981B2, “Pyrrolotriazine compounds and methods of inhibiting TAM kinases” (Syros Pharmaceuticals, Inc., priority 2017, dated 2021) one finds IC50 data, which are given here for 32 compounds.

Broadly, the IC50 is the midpoint of a concentration-inhibition curve. A lower IC50 goes with inhibition by little substance.

The target of one assay is T1, AXL (Homo sapiens, UniProt P30530).
T1 sequence (P30530 26-894): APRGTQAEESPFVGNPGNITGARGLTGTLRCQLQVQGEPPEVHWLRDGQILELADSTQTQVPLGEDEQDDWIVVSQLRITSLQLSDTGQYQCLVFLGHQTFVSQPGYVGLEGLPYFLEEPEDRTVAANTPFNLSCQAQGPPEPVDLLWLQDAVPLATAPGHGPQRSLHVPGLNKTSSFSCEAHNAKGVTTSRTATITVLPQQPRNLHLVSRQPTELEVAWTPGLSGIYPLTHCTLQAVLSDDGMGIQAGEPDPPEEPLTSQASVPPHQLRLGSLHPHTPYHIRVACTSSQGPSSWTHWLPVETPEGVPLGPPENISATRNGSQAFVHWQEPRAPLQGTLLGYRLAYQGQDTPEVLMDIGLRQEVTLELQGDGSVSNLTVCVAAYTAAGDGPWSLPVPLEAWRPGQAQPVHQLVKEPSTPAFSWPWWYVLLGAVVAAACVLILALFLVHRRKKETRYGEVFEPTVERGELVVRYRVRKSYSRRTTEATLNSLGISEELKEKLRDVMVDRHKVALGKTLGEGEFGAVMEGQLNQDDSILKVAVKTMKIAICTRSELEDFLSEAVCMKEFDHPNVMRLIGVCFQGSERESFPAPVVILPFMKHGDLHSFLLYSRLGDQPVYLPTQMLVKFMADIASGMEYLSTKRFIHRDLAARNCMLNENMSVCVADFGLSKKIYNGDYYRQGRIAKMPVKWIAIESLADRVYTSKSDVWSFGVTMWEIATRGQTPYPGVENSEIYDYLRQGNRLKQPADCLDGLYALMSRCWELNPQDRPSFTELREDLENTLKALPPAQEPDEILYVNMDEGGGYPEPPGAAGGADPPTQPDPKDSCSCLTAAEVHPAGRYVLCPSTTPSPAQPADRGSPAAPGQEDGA
In words: TR-FRET kinase activity assay, AXL. The note with it: ATP at Km, 60 minutes. It is filed as biochemical. The method in brief: (§1)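 Recombinant human kinases, fluorescent peptide substrate, ATP at Km; 1 h RT, pH 7.5. EDTA-quenched, Eu antibody added, TR-FRET read; IC50 determined.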
In general terms: TR-FRET usually uses a lanthanide donor and a delayed reading to cut background.

A further assay has as its target T2, FLT3 (Homo sapiens, UniProt P36888).
T2 sequence (P36888 27-993): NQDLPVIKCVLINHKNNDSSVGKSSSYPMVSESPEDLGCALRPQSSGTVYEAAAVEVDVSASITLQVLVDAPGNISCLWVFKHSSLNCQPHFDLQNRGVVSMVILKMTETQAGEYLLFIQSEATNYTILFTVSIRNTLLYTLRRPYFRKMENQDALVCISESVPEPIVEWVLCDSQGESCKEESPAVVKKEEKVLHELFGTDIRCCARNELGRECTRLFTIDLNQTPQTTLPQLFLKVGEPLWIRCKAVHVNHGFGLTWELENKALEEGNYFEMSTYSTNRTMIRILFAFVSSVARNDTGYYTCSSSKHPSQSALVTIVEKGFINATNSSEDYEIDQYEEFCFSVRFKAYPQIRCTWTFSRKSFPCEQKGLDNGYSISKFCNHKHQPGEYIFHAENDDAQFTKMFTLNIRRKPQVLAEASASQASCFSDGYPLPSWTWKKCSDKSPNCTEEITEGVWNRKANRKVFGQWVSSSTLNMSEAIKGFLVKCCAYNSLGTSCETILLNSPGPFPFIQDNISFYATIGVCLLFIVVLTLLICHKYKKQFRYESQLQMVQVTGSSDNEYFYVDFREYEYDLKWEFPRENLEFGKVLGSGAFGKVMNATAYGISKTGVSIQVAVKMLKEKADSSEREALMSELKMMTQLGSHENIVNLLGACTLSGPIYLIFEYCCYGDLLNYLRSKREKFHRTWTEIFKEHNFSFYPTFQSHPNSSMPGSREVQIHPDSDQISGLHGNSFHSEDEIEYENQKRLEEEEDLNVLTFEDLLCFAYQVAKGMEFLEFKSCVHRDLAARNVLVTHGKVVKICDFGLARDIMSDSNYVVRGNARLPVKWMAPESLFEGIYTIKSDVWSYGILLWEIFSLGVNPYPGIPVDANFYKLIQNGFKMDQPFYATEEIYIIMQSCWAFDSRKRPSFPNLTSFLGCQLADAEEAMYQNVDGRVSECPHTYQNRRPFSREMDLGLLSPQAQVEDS
Briefly: TR-FRET kinase activity assay, FLT3. The format is biochemical. Particulars: ATP at Km, 60 minutes. The method in brief: as §1

Take `COC[C@H](C)Nc1ncc2c(-c3cnn(C4COC4)c3)cc(-c3ccc(OC)cc3)n2n1` [Compound 502]: the IC50 against AXL was in the range of 100 to 1000 nM; at FLT3, 1000 to 10000 nM.
Consider `COC[C@H](C)Nc1ncc2c(-c3cnn(C(C)(C)C(=O)N4CCOCC4)c3)cc(C3CCc4[nH]ncc4C3)n2n1` (stereo partly shown) [Compound 488], for which the IC50 was ≤ 100 nM against AXL and 100 to 1000 nM at FLT3.
For the compound `C[C@@H](CC(F)(F)F)Nc1ncc2c(C3=CCNCC3)cc([C@H]3CC[C@H](O)CC3)n2n1` [Compound 442], the concentration for half-maximal inhibition (IC50) against AXL and against FLT3 was ≤ 100 nM throughout.
With `COC[C@H](C)Nc1ncc2c(-c3ccnc(N4CCN(S(=O)(=O)C5CC5)CC4)c3)cc([C@H]3CC[C@H](O)CC3)n2n1` [Compound 491], the IC50 at AXL was ≤ 100 nM; against FLT3 it was 100 to 1000 nM.
For `COC[C@H](C)Nc1ncc2c(-c3ccnc(N4CCOCC4=O)c3)cc([C@H]3CC[C@H](O)CC3)n2n1` [Compound 423] the same measures were ≤ 100 nM and 100 to 1000 nM.
For `COC[C@H](C)Nc1ncc2c(-c3cnn(C[C@@H]4CCO4)c3)cc([C@H]3CC[C@H](O)CC3)n2n1` [Compound 478] the same measures were ≤ 100 nM and 1000 to 10000 nM.
For `COC[C@H](C)Nc1ncc2c(-c3cnn(C(C)(C)C(=O)N4CCC(C)(C#N)CC4)c3)cc([C@H]3CC[C@H](O)CC3)n2n1` [Compound 451] the same measures were ≤ 100 nM and 100 to 1000 nM.
In the case of `COC[C@H](C)Nc1ncc2c(-c3ccnc(NC4CCOCC4)c3)cc([C@H]3CC[C@H](O)CC3)n2n1` [Compound 431], the IC50 against AXL is ≤ 100 nM; against FLT3, 100 to 1000 nM.
The corresponding values for `C[C@H](CC(F)(F)F)Nc1ncc2c(C3=C[C@H]4CC[C@@H](C3)N4C(=O)OC(C)(C)C)cc([C@H]3CC[C@H](O)CC3)n2n1` [Compound 456] are ≤ 100 nM and ≤ 100 nM.
The corresponding values for `COC[C@H](C)Nc1ncc2c(-c3ccc(C(C)(C)C(=O)N4CCOCC4)s3)cc([C@H]3CC[C@H](O)CC3)n2n1` [Compound 460] are ≤ 100 nM and ≤ 100 nM.
For `CC(CC1COC1)Nc1ncc2c(-c3cnn(C4COC4)c3)cc([C@H]3CC[C@H](O)CC3)n2n1` (mixture of isomers) [Compound 447] the same measures were 1000 to 10000 nM and 1000 to 10000 nM.
In the case of `CCC(=O)N1CCN(c2cc(-c3cc([C@H]4CC[C@H](O)CC4)n4nc(N[C@@H](C)COC)ncc34)ccn2)CC1` [Compound 432], the IC50 at AXL was ≤ 100 nM; against FLT3, 100 to 1000 nM.
For `COC[C@H](C)Nc1ncc2c(-c3ccnc(N4CC5(COC5)C4)c3)cc([C@H]3CC[C@H](O)CC3)n2n1` [Compound 426] the same measures were ≤ 100 nM and 100 to 1000 nM.
For `COC[C@H](C)Nc1ncc2c(-c3ccnc(N4CCC5(COC5)C4)c3)cc([C@H]3CC[C@H](O)CC3)n2n1` [Compound 493] the same measures were ≤ 100 nM and 100 to 1000 nM.
With `COC[C@H](C)Nc1ncc2c(CC#N)cc([C@H]3CC[C@H](O)CC3)n2n1` [Compound 497], the IC50 was in the range of 100 to 1000 nM against AXL and 1000 to 10000 nM on FLT3.
For `COC[C@H](C)Nc1ncc2c(C3=C[C@H]4CC[C@@H](C3)N4)cc([C@H]3CC[C@H](O)CC3)n2n1` [Compound 467] the same measures were ≤ 100 nM and 1000 to 10000 nM.
The corresponding values for `COC[C@H](C)Nc1ncc2c(C3=CCNCC3)cc([C@H]3CC[C@H](O)CC3)n2n1` [Compound 443] are ≤ 100 nM and 1000 to 10000 nM.
The corresponding values for `COC[C@H](C)Nc1ncc2c(-c3ccnc(N4CCOC4=O)c3)cc([C@H]3CC[C@H](O)CC3)n2n1` [Compound 438] are ≤ 100 nM and 1000 to 10000 nM.
Consider `COC[C@H](C)Nc1ncc2c(-c3cnn([C@@H]4CCN(C)C4=O)c3)cc([C@H]3CC[C@H](O)CC3)n2n1` [Compound 471], for which the IC50 at AXL is ≤ 100 nM; against FLT3, 1000 to 10000 nM.
For `COC[C@H](C)Nc1ncc2c(C3=C[C@@H]4CC[C@H](C3)N4C(=O)N3CCOCC3)cc([C@H]3CC[C@H](O)CC3)n2n1` [Compound 463] the same measures were ≤ 100 nM and 100 to 1000 nM.
On to `COC[C@H](C)Nc1ncc2c(C3=C[C@H]4CCC(C3)N4C(C)=O)cc([C@H]3CC[C@H](O)CC3)n2n1` [Compound 468], for which the values for the IC50 against AXL and against FLT3 were ≤ 100 nM and 100 to 1000 nM, respectively.
For `COC[C@H](C)Nc1ncc2c(-c3ccnc(N4CCC5(CCO5)CC4)c3)cc([C@H]3CC[C@H](O)CC3)n2n1` [Compound 430] the same measures were ≤ 100 nM and 100 to 1000 nM.
For `COC[C@H](C)Nc1ncc2c(-c3conc3C)cc([C@H]3CC[C@H](O)CC3)n2n1` [Compound 508] the same measures were ≤ 100 nM and 1000 to 10000 nM.
For `COC[C@H](C)Nc1ncc2c(-c3cnn(C(C)(C)C(=O)N4CCC(C)(O)CC4)c3)cc([C@H]3CC[C@H](O)CC3)n2n1` [Compound 450] the same measures were ≤ 100 nM and 1000 to 10000 nM.
Regarding `CC[C@H](C)Nc1ncc2c(C3CCOCC3)cc([C@H]3CC[C@H](O)CC3)n2n1` [Compound 129, (trans)-4-(2-((S)-sec-butylamino)-5-(tetrahydro-2H-pyran-4-yl)pyrrolo[2,1-f][1,2,4]triazin-7-yl)cyclohexanol], the IC50 at AXL lay in the range of 100 to 1000 nM; on FLT3, 1000 to 10000 nM.
For `COC[C@H](C)Nc1ncc2c(-c3ccnc(F)c3)cc([C@H]3CC[C@H](O)CC3)n2n1` [Compound 505] the same measures were ≤ 100 nM and 1000 to 10000 nM.
For `COC[C@H](C)Nc1ncc2c(-c3cccc(C4CCc5nc(C)[nH]c5C4)c3)cc([C@H]3CC[C@H](O)CC3)n2n1` (stereo partly shown) [Compound 498] the same measures were ≤ 100 nM and 100 to 1000 nM.
The corresponding values for `C[C@@H](COC(F)F)Nc1ncc2c(-c3cnn(CCS(C)(=O)=O)c3)cc([C@H]3CC[C@H](O)CC3)n2n1` [Compound 436] are ≤ 100 nM and 100 to 1000 nM.
On to `COC[C@H](C)Nc1ncc2c(-c3cnn(C(C)(C)CN4CCOCC4)c3)cc([C@H]3CC[C@H](O)CC3)n2n1` [Compound 459], for which the IC50 was ≤ 100 nM against AXL and 1000 to 10000 nM against FLT3.
For `CC[C@H](C)Nc1ncc2c(-c3ccc(CN4CCN(C)CC4)cc3)cc([C@H]3CC[C@](C)(O)CC3)n2n1` (relative stereo) [Compound 132, (trans)-4-(2-((S)-sec-butylamino)-5-(4-((4-methylpiperazin-1-yl)methyl)phenyl)pyrrolo[2,1-f][1,2,4]triazin-7-yl)-1-methylcyclohexanol] the same measures were ≤ 100 nM and ≤ 100 nM.
With `COC[C@H](C)Nc1ncc2c(-c3ccnc(N4CCc5nc(C)sc5C4)c3)cc([C@H]3CC[C@H](O)CC3)n2n1` [Compound 509], the values for the IC50 against AXL and against FLT3 were ≤ 100 nM and 1000 to 10000 nM, respectively.
For `CNS(=O)(=O)c1ccc(-c2cc([C@H]3CC[C@H](O)CC3)n3nc(N[C@@H](C)COC(F)F)ncc23)cn1` [Compound 424] the same measures were ≤ 100 nM and 100 to 1000 nM.
